“Also recorded” adds a separate entry of the source. Like-named read-outs stand apart in the source and are kept apart here.
Assays:
[1] = test system: cervical cancer cell line Hela; test: MTT assay of cellular proliferation, Hela; type: cell-based; details: Homo sapiens, read-out: EC50: Concentration that inhibits 50% of proliferation
How it was run: (§1)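 EC50 values come from optical density at 570 nm of solubilized MTT formazan, added for 3˜4 h after compound exposure. Cells in DMEM with 5% FBS were treated at 1 nM to 10 μM once 20˜30% confluent.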

[2] = test system: colon cancer cell line SW460; test: MTT assay of cellular proliferation, SW460; type: cell-based; details: Homo sapiens, SW480; read-out: EC50: Concentration that inhibits 50% of proliferation
How it was run: as §1

[3] = test system: gastric cancer cell line NCI-N87; test: Minimal effective concentration that elicits polyploidy, NCI-N87; type: cell-based; details: Homo sapiens, read-out: MECP: Minimal effective concentration that elicits polyploidy
[4] = test system: lung cancer cell line A549; test: Minimal effective concentration that elicits polyploidy, A549; type: cell-based; details: Homo sapiens, read-out: MECP: Minimal effective concentration that elicits polyploidy
[5] = test system: breast cancer cell line MDA-MB-231; test: Minimal effective concentration that elicits polyploidy, MDA-MB-231; type: cell-based; details: Homo sapiens, read-out: MECP: Minimal effective concentration that elicits polyploidy
[6] = test system: liver cancer cell line T2 HCC; test: Minimal effective concentration that elicits polyploidy, T2 HCC; type: cell-based; details: Mus musculus, read-out: MECP: Minimal effective concentration that elicits polyploidy
[7] = test system: liver cancer cell line T2 HCC; test: MTT assay of cellular proliferation, T2 HCC; type: cell-based; details: Mus musculus, read-out: EC50: Concentration that inhibits 50% of proliferation
How it was run: as §1

[8] = test system: SW480; test: Minimal effective concentration that elicits polyploidy, SW480; type: cell-based; details: Homo sapiens, read-out: MECP: Minimal effective concentration that elicits polyploidy
[9] = test system: lung cancer cell line NCI-H23; test: MTT assay of cellular proliferation, NCI-H23; type: cell-based; details: Homo sapiens, read-out: EC50: Concentration that inhibits 50% of proliferation
How it was run: as §1

[10] = test system: human colon cancer cell line HCT116; test: Xenograft assay, HCT116; type: in vivo; details: HCT116 subcutaneous xenograft, Nu/Nu mice, oral gavage twice a day for 9 days, FIG. 4
Description: (§2) Xenografts were initiated in immunocompromised (Nu/Nu) mice with the human lung adenocarcinoma cell line NCI-H23 (FIG. 3) and the human colon cancer cell line HCT116 (FIG. 4). Five million cells were injected subcutaneously into each mouse and treatment was initiated when the average tumor volumes reached 150 mm3 (n=5/groups). Tumor-bearing mice were randomized into different groups to receive either vehicle or indicated compounds. The compounds were administered through oral gavage twice a day for 9 days. Day 0 on the x-axis indicates the day that treatment was initiated. For these experiments, all compounds were first dissolved in DMSO and then diluted 1:10 into a mixture containing 50% PEG300 and 49% PBS, 1% Tween 80, pH2.2. 100 ul of drug solution was administered with each dose. Tumor volumes were determined once every three days and are calculated from digital caliper raw data by using the formula: Volume (mm3)=(L×W^2)/2. The value W (Width) is the smaller of two perpendicular tumor axes and the value L (Length) is the larger of two perpendicular axes. Mean tumor volume growth curves and means are calculated for each treatment group.

[11] = test system: gastric cancer cell line NCI-N87; test: MTT assay of cellular proliferation, NCI-N87; type: cell-based; details: Homo sapiens, read-out: EC50: Concentration that inhibits 50% of proliferation
How it was run: as §1

[12] = test system: lung cancer cell line A549; test: MTT assay of cellular proliferation, A549; type: cell-based; details: Homo sapiens, read-out: EC50: Concentration that inhibits 50% of proliferation
How it was run: as §1

[13] = test system: breast cancer cell line MDA-MB-231; test: MTT assay of cellular proliferation, MDA-MB-231; type: cell-based; details: Homo sapiens, read-out: EC50: Concentration that inhibits 50% of proliferation
How it was run: as §1

[14] = test system: colon cancer cell line HCT116; test: Minimal effective concentration that elicits polyploidy, HCT116; type: cell-based; details: Homo sapiens, HCT-116, read-out: MECP: Minimal effective concentration that elicits polyploidy
[15] = test system: human lung adenocarcinoma cell line NCI-H23; test: Xenograft assay, NCI-H23; type: in vivo; details: NCI-H23 subcutaneous xenograft, Nu/Nu mice, oral gavage twice a day for 9 days, FIG. 3
Description: as §2

[16] = test system: cervical cancer cell line Hela; test: Minimal effective concentration that elicits polyploidy, Hela; type: cell-based; details: Homo sapiens, read-out: MECP: Minimal effective concentration that elicits polyploidy
[17] = test system: colon cancer cell line HCT116; test: MTT assay of cellular proliferation, HCT116; type: cell-based; details: Homo sapiens, HCT-116, read-out: EC50: Concentration that inhibits 50% of proliferation
How it was run: as §1

[18] = test system: RPEMYC^H2B-GFP cells; test: Mechanism-informed phenotypic screening assay (mitotic arrest, polyploidy; GE IN-Cell Analyzer 2000); type: cell-based; details: 20 nM to 20 μM, 24, 48 or 72 hours, read-out: Mitotic Arrest (≥5%)
[19] = test system: lung cancer cell line NCI-H23; test: Minimal effective concentration that elicits polyploidy, NCI-H23; type: cell-based; details: Homo sapiens, read-out: MECP: Minimal effective concentration that elicits polyploidy
[20] = test system: RPEMYC^H2B-GFP cells; test: Mechanism-informed phenotypic screening assay (mitotic arrest, polyploidy; GE IN-Cell Analyzer 2000); type: cell-based; details: 20 nM to 20 μM, 24, 48 or 72 hours, read-out: Min. Effective conc. for polyploidy (≥5%)
How it was run: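 RPEMYC^H2B-GFP cells expressing Histone 2B-EGFP were treated with compounds at 20 nM to 20 μM. Mitotic arrest and DNA content were imaged at 24, 48 or 72 h. Minimal effective concentrations eliciting polyploidy are given as letter bins.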

| Structure (SMILES) | EC50 [1] | EC50 [2] | minimal effective concentration [3] | minimal effective concentration [4] | minimal effective concentration [5] | minimal effective concentration [6] | EC50 [7] | minimal effective concentration [8] | EC50 [9] | tumor growth (tumor volume) [10] | EC50 [11] | EC50 [12] | EC50 [13] | minimal effective concentration [14] | tumor growth (tumor volume) [15] | minimal effective concentration [16] | EC50 [17] | minimal effective concentration [18] | minimal effective concentration [19] | minimal effective concentration [20] |
| --- | --- | --- | --- | --- | --- | --- | --- | --- | --- | --- | --- | --- | --- | --- | --- | --- | --- | --- | --- | --- |
| COc1cc(Oc2ncccc2-c2ccncc2)cc(C(F)(F)F)c1 [Compound 9, 2-(3-methoxy-5-(trifluoromethyl)phenoxy)-3,4′-bipyridine] | 1 to 1000 nM | 1 to 1000 nM | 0.001 to 1 µM | 0.001 to 1 µM | 0.001 to 1 µM | 0.001 to 1 µM | 1 to 1000 nM | 0.001 to 1 µM | 1 to 1000 nM | suppress the growth; also recorded: suppressing the tumor growth; also recorded: eliciting tumor regression | 1 to 1000 nM | 1 to 1000 nM | 1 to 1000 nM | 0.001 to 1 µM | suppress the growth; also recorded: suppressing the tumor growth; also recorded: eliciting tumor regression | 0.001 to 1 µM | 1 to 1000 nM | 1 µM | 0.001 to 1 µM | 1 µM |
| COc1cc(Oc2ncccc2-c2ccncc2)cc(-n2cccn2)c1 [Compound 10, 2-(3-methoxy-5-(1H-pyrazol-1-yl)phenoxy)-3,4′-bipyridine] | 1 to 1000 nM | 1 to 1000 nM | 0.001 to 1 µM | 0.001 to 1 µM | 0.001 to 1 µM | 0.001 to 1 µM | 1 to 1000 nM | 0.001 to 1 µM | 1 to 1000 nM | suppress the growth; also recorded: suppressing the tumor growth | 1 to 1000 nM | 1 to 1000 nM | 1 to 1000 nM | 0.001 to 1 µM | suppress the growth; also recorded: suppressing the tumor growth | 0.001 to 1 µM | 1 to 1000 nM | 1 µM | 0.001 to 1 µM | 1 µM |

From patent publication US20240262803A1, “COMPOUNDS, COMPOSITIONS AND METHODS OF TREATING DISORDERS” (Chungdu Anticancer Bioscience Ltd, priority 2021, published 2024)
